Assay [1] can be described thus: Increase of the peripheral insulin action in diabetic mice. To be noted: 0.46 mU/g, control group (FIG. 5). Format: in vivo. As for the experimental part:
Diabetic mice were divided into a control group and a test group. A dose of 100 mg of brazilin per kg body weight was daily administered to the animals of the test group; instead of brazilin, the same amount of saline solution was injected intraperitoneally to the animals of the control group.
After 30 test days, the body weight of the animals of the test group was higher and the blood sugar values of these animals were lower as compared to the diabetic animals of the control group.
On the 30th test day, the animals were made to fast for 5 h; thereupon, they were injected intravenously with 0.46 mU/g of NPH insulin. Then, the blood sugar values were measured at respective intervals of 5 min.

The next assay relates to cyclo-oxygenase. To be noted: conventional prostaglandin synthesis inhibitors; cited from earlier work.
For the next assay, the system named is prostacyclin synthetase. To be noted: conventional prostaglandin synthesis inhibitors; cited from earlier work.
In assay [2] the test system is platelet aggregation in normal human plasma. The assay is described as follows: Platelet aggregation in normal human plasma induced by ADP. In kind it is cell-based. As to conditions: for T/min, Aggregation (first value) / Tmax, Aggregation (first value): control 75.1; for activity at 1000 µM / inhibition at 1000 µM / activity at 100 µM / inhibition at 100 µM: Homo sapiens, Platelet; for activity at 1000 µM / activity at 100 µM: control 100. As for the experimental part: (§1) The platelet aggregation was determined by a tubimetric method in a dual-channel aggregometer, assuming that a platelet-poor plasma represented 100% aggregation and that a platelet-rich plasma represented 0% aggregation. Each aggregometer tube was charged with 40 μl of platelet-rich plasma and 50 μl of test sample solution. The mixture was incubated at 37° C. for 2 min., whereupon 50 μl of ADP solution were added. Percent inhibition of the platelet aggregation caused by the test sample solution was calculated as follows: [formula]

The conditions of assay [3]: Rev. Latinoam. Microbiol. 1, 225-232 (1958); cited from earlier work.
The test system of assay [4] is platelet aggregation in diabetic human plasma. Kind of assay: Platelet aggregation in diabetic human plasma induced by ADP. In kind it is cell-based. As to conditions: for activity at 1000 µM / inhibition at 1000 µM / activity at 100 µM / inhibition at 100 µM: Homo sapiens, Platelet; for activity at 1000 µM / activity at 100 µM: control 100. The protocol:
as §1

The next assay concerns plasmalipid. To be noted: spontaneously hypertensive rats; Fette-Seifen-Anstrichmittel 87, 74-76 (1985); cited from earlier work.
Assay [5] deals with lipid peroxidation in the mitochondria of rat liver. To be noted: Arch. Pharm. Res. 7, 63-64, 1984; cited from earlier work.
Assay [6] can be described thus: Comparison of synthetic substances with full extract. As to conditions: synthetically prepared substance.
For assay [7] the following is noted: Planta Med. 31, 214-220 (1977); cited from earlier work.
Where [8] appears, read: 10^-3 M, read-out: T/min, Aggregation relative to control (second value).
Where [9] appears, read: 10^-3 M, read-out: Tmax, Aggregation relative to control (second value).
[10] abbreviates: 10^-3 M, read-out: T/min, Inhibition.
Where [11] appears, read: 10^-3 M, read-out: Tmax, Inhibition.
Where [12] appears, read: 10^-4 M, read-out: T/min, Aggregation relative to control (second value).
Setting [13] is: 10^-4 M, read-out: Tmax, Aggregation relative to control (second value).
Setting [14] is: 10^-4 M, read-out: T/min, Inhibition.
The mark [15] stands for this setting: 10^-4 M, read-out: Tmax, Inhibition.

Like-named read-outs stand apart in the source and are kept apart here.

On to NPH insulin [reference compound], for which the “blood sugar after i.v. NPH insulin in diabetic control mice” value in assay [1] is given as “cannot significantly change the blood sugar value”.
For the molecule `COc1ccc2c(c1)c(CC(=O)O)c(C)n2C(=O)c1ccc(Cl)cc1` [indomethacin], the inhibition of cyclo-oxygenase result in the assay with cyclo-oxygenase is listed as “inhibit the activity of cyclo-oxygenase”. For the same molecule, the “inhibition of prostacyclin synthetase” value in the assay on prostacyclin synthetase is given as “prostacyclin synthetase is also undesirably inhibited”.
On to `Oc1cc2c(cc1O)[C@@H]1c3ccc(O)c(O)c3OC[C@]1(O)C2` [hematoxylin], for which the “T/min, Aggregation (first value)” value in assay [2] (10^-3 M) is recorded as 11.7%; in assay [2] (10^-4 M), 58.8%; in assay [4] (10^-3 M, control 78.7), 7.5%. Further, the “Tmax, Aggregation (first value)” value came out at 22.6% in assay [2] (10^-3 M); 68.1% in assay [2] (10^-4 M); 52.5% in assay [4] (10^-3 M, control 78.7); 76.3% in [4] (10^-4 M, control 78.7). Moreover, the activity at 1000 µM in assay [2] (setting [8]) is 15.6%; in assay [2] (setting [9]), 30.8%; in assay [4] (setting [8]) it was 9.5%; in assay [4] (setting [9]), 66.5%. Further, the inhibition at 1000 µM stood at 84.4% in assay [2] (setting [10]), 69.8% in [2] (setting [11]), 90.5% in assay [4] (setting [10]) and 33.5% in [4] (setting [11]). Moreover, the activity at 100 µM was 78.4% in [2] (setting [12]), 90.6% in assay [2] (setting [13]) and 96.8% in assay [4] (setting [13]). Moreover, the inhibition at 100 µM in assay [2] (setting [14]) is 21.7%; in assay [2] (setting [15]) it was 9.4%; in assay [4] (setting [15]), 3.2%. In assay [3], the antibacterial effect result is “antibacterial effect”. Besides, the “inhibition of the platelet aggregation” value in [4] (conclusion on Tables 12 and 13) is on record as “considerable inhibition of the platelet aggregation”. Also, the plasmalipid-reducing effect result in the assay with plasmalipid is “plasmalipid-reducing effect”. Also, the “effect on lipid peroxidation in mitochondria of rat liver” value in assay [5] is reported as “effect on the lipid peroxidation”. Further, in assay [6], the “effects compared with administration of major amounts of full extract” value is reported as “substantially has the same effects”. In addition, the anti-inflammatory effect entry in [7] is listed as “anti-inflammatory effect”.
Regarding `CC(=O)Oc1ccccc1C(=O)O` [acetylsalicylic acid, reference compound], the “T/min, Aggregation (first value)” value in assay [2] (10^-3 M) is given as 11.9%; in assay [2] (10^-4 M), 17.4%. In addition, the “Tmax, Aggregation (first value)” value came to 37.5% in assay [2] (10^-3 M); 60.2% in [2] (10^-4 M); 70.0% in [4] (10^-3 M, control 78.7); 73.8% in assay [4] (10^-4 M, control 78.7). Besides, the activity at 1000 µM stood at 15.8% in assay [2] (setting [8]), 49.9% in assay [2] (setting [9]) and 88.9% in assay [4] (setting [9]). The inhibition at 1000 µM in [2] (setting [10]) worked out at 84.6%; in [2] (setting [11]) it was 50.1%; in assay [4] (setting [11]), 11.1%. Besides, the figures for the activity at 100 µM in assay [2] (setting [12]), in assay [2] (setting [13]) and in assay [4] (setting [13]) were 23.2%, 80.1% and 93.6%, respectively. Also, the inhibition at 100 µM is 76.8% in assay [2] (setting [14]), 19.9% in assay [2] (setting [15]) and 6.4% in assay [4] (setting [15]). Further, the inhibition of cyclo-oxygenase entry in the assay with cyclo-oxygenase is “inhibit the activity of cyclo-oxygenase”. For the same molecule, in the assay with prostacyclin synthetase, the “inhibition of prostacyclin synthetase” value is given as “prostacyclin synthetase is also undesirably inhibited”.

Values taken from patent US4918099A, “Drug, preparation and use thereof” (priority 1985, dated 1990).
